Test results as given in BigSolDB 2.1.

CCCCN(CCCC)CC(O)c1cc(Cl)cc2c1-c1ccc(Cl)cc1/C2=C/c1ccc(Cl)cc1 (stereo not given)
solubility (mole fraction) (in ethyl acetate, 278.15 K): 0.00178
solubility (mole fraction) (in ethyl acetate, 283.15 K): 0.00234
solubility (mole fraction) (in ethyl acetate, 288.15 K): 0.00317
solubility (mole fraction) (in ethyl acetate, 293.15 K): 0.00411
solubility (mole fraction) (in ethyl acetate, 298.15 K): 0.0054
solubility (mole fraction) (in ethyl acetate, 303.15 K): 0.00693
solubility (mole fraction) (in ethyl acetate, 308.15 K): 0.00903
solubility (mole fraction) (in ethyl acetate, 313.15 K): 0.0116
solubility (mole fraction) (in ethyl acetate, 318.15 K): 0.0152
solubility (mole fraction) (in ethyl acetate, 323.15 K): 0.0201
solubility (mole fraction) (in methanol, 278.15 K): 1.34e-05
solubility (mole fraction) (in methanol, 283.15 K): 1.7e-05
solubility (mole fraction) (in methanol, 288.15 K): 2.28e-05
solubility (mole fraction) (in methanol, 293.15 K): 3.04e-05
solubility (mole fraction) (in methanol, 298.15 K): 3.82e-05
solubility (mole fraction) (in methanol, 303.15 K): 4.97e-05
solubility (mole fraction) (in methanol, 308.15 K): 6.3e-05
solubility (mole fraction) (in methanol, 313.15 K): 8.2e-05
solubility (mole fraction) (in methanol, 318.15 K): 0.000106
solubility (mole fraction) (in methanol, 323.15 K): 0.000136
solubility (mole fraction) (in n-butyl acetate, 278.15 K): 0.00425
solubility (mole fraction) (in n-butyl acetate, 283.15 K): 0.00533
solubility (mole fraction) (in n-butyl acetate, 288.15 K): 0.00674
solubility (mole fraction) (in n-butyl acetate, 293.15 K): 0.00866
solubility (mole fraction) (in n-butyl acetate, 298.15 K): 0.0108
solubility (mole fraction) (in n-butyl acetate, 303.15 K): 0.0138
solubility (mole fraction) (in n-butyl acetate, 308.15 K): 0.0176
solubility (mole fraction) (in n-butyl acetate, 313.15 K): 0.0223
solubility (mole fraction) (in n-butyl acetate, 318.15 K): 0.0286
solubility (mole fraction) (in n-butyl acetate, 323.15 K): 0.036
solubility (mole fraction) (in n-pentyl acetate, 278.15 K): 0.00475
solubility (mole fraction) (in n-pentyl acetate, 283.15 K): 0.00656
solubility (mole fraction) (in n-pentyl acetate, 288.15 K): 0.00849
solubility (mole fraction) (in n-pentyl acetate, 293.15 K): 0.011
solubility (mole fraction) (in n-pentyl acetate, 298.15 K): 0.0137
solubility (mole fraction) (in n-pentyl acetate, 303.15 K): 0.0168
solubility (mole fraction) (in n-pentyl acetate, 308.15 K): 0.0212
solubility (mole fraction) (in n-pentyl acetate, 313.15 K): 0.0253
solubility (mole fraction) (in n-pentyl acetate, 318.15 K): 0.0327
solubility (mole fraction) (in n-pentyl acetate, 323.15 K): 0.0407
solubility (mole fraction) (in n-propyl acetate, 278.15 K): 0.00281
solubility (mole fraction) (in n-propyl acetate, 283.15 K): 0.00366
solubility (mole fraction) (in n-propyl acetate, 288.15 K): 0.00486
solubility (mole fraction) (in n-propyl acetate, 293.15 K): 0.00656
solubility (mole fraction) (in n-propyl acetate, 298.15 K): 0.00841
solubility (mole fraction) (in n-propyl acetate, 303.15 K): 0.0109
solubility (mole fraction) (in n-propyl acetate, 308.15 K): 0.0139
solubility (mole fraction) (in n-propyl acetate, 313.15 K): 0.018
solubility (mole fraction) (in n-propyl acetate, 318.15 K): 0.0231
solubility (mole fraction) (in n-propyl acetate, 323.15 K): 0.0305
